# Measurements reported in patent US7759350B2, “Pyrimidine carboxamides” (Orchid Research Laboratories Ltd., priority 2005, dated 2010).
# Columns and labels:
# [1] = target: purified recombinant COX-1 enzyme (Homo sapiens, UniProt P23219); test: COX-1 enzyme based assay; format: biochemical; settings: Conc. 10 μM
# Method: (§1) COX-1 and COX-2 Enzyme Based Assay
# (§2) COX-2 enzyme based assays were carried out to check the inhibitory potential of test compounds on the production of prostaglandin by purified recombinant COX-1/COX-2 enzyme (Proc. Nat. Acad. Sci. USA, 88, 2692-2696, 1991; Clin. Immunoassay 15, 116-120, 1992) In this assay, the potential of the test compound to inhibit the production of prostaglandin either by COX-1 or COX-2 from arachidonic acid (substrate) was measured. This was an enzyme based in-vitro assay to evaluate selective COX inhibition with good reproducibility.
# (§3) Arachidonic acid was converted to PGH2 (Intermediate product) by COX1/COX-2 in presence or absence of the test compound. The reaction was carried out at 37° C. and after 2 minutes it was stopped by adding 1M HCl. Intermediate products PGH2 was converted to a stable Prostanoid product PGF2α by SnCl2 reduction. The amount of PGF2α produced in the reaction was inversely proportional to the COX inhibitory potential of the test compound. The prostanoid product was quantified via enzyme immunoassay (EIA) using a broadly specific antibody that binds to all the major forms of Prostaglandin, using Cayman ELISA kit as per the procedure outlined by the manufacturer Cayman Chemicals, Ann Arbor, USA).
# [2] = target: T1, purified recombinant COX-2 enzyme (Homo sapiens, UniProt P35354); test: COX-2 enzyme based assay; format: biochemical; settings: Conc. 10 μM
# T1 sequence (P35354 18-604): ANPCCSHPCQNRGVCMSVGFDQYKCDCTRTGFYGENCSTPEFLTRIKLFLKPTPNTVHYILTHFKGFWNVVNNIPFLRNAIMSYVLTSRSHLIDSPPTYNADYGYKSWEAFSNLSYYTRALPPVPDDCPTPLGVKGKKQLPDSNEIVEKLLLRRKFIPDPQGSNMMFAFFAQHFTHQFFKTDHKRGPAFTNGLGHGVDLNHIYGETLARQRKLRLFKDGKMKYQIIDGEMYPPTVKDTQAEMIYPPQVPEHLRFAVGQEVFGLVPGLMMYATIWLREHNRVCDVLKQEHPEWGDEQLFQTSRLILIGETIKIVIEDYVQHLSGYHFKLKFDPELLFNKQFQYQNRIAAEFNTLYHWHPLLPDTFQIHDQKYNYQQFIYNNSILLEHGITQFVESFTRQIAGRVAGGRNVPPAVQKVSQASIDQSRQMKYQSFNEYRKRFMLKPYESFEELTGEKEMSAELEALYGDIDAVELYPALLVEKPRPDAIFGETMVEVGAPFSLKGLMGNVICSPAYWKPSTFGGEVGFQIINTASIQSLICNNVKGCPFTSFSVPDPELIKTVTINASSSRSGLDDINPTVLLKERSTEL
# Method: as §1, §2, §3
# [3] = system: IL-6; test: In vitro measurement of IL-6 in human PBMC; format: cell-based; settings: Conc. 0.1 μM, LPS
# Outline: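 Human PBMC (0.5 million/well) preincubated with compound 15 min at 37° C., then stimulated with E. coli LPS (1 μg/ml) for 18 h at 37° C. Cytokine in culture medium quantified by ELISA.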
# [4] = system: Carrageenan induced paw edema in rat; test: Carrageenan induced paw edema test in rat; format: in vivo; settings: 5 mg/kg oral; male wistar rats; 3 hours after carrageenan
# Method: Carrageenan Induced Paw Edema Test in Rat
# The carrageenan paw edema test was performed as described by Winter et al (Proc. Soc. Exp. Biol. Med, 111, 544, 1962). Male wistar rats were selected with body weights equivalent within each group. The rats were fasted for eighteen hours with free access to water. The rats were dosed orally with the test compound suspended in vehicle containing 0.25% carboxymethylcellulose and 0.5% Tween 80. The control rats were administered with vehicle alone. After an hour, the rats were injected with 0.1 ml of 1% Carrageenan solution in 0.9% saline into the sub-plantar surface of the right hind paw. Paw volume was measured using digital plethysmograph before and after 3 hours of carrageenan injection. The average of foot swelling in drug treated animals was compared with that of control animals. Anti-inflammatory activity was expressed as the percentage inhibition of edema compared with control group [Arzneim-Forsch/Drug Res., 43 (I), 1,44-50,1993; Otterness and Bliven, Laboratory Models for Testing NSAIDs, In Non-Steroidal Anti-Inflammatory Drugs, (J. Lombardino, ed. 1985)].
# Sequence of purified recombinant COX-1 enzyme (P23219 24-599): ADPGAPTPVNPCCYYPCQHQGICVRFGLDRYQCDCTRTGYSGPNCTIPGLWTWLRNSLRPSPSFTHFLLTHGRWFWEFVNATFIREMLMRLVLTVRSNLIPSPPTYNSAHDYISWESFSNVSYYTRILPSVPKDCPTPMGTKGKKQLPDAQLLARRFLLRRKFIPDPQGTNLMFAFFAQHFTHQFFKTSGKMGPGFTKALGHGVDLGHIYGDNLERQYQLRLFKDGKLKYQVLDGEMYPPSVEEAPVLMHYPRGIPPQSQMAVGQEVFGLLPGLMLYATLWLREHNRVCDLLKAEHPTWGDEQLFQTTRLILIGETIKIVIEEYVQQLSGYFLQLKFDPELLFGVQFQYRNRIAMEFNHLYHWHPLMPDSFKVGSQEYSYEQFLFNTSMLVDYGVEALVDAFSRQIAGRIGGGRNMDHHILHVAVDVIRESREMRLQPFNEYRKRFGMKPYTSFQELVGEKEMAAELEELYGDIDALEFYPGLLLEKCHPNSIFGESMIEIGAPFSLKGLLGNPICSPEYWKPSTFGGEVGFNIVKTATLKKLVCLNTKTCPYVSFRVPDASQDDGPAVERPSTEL
compound,measurement,setting,value
"CNc1nc(-c2ccncc2)nc(SC)c1C(=O)Nc1ccc(OC)cc1 [Example 14, N-(4-Methoxyphenyl)-4-(methylamino)-6-(methylthio)-2-pyridin-4-ylpyrimidine-5-carboxamide]",COX-1 Inhibition (%),[1],Not Active
same,inhibition at 10 µM,[2],11.4%
same,inhibition at 0.1 µM,[3],28.2%
same,Inhibition of edema (%) at 5 mg/kg,[4],31.02%
